Measurements published in publication PMC6152638, “Anti-Inflammatory Phenolic Acid Esters from the Roots and Rhizomes of Notopterygium incisium and Their Permeability in the Human Caco-2 Monolayer Cell Model” (Molecules : A Journal of Synthetic Chemistry and Natural …, 2017).
Entries after “also recorded” stand apart in the source; their conditions may differ. Like-named read-outs stand apart in the source and are kept apart here.

What was measured:
[1] = system: NO production in LPS-stimulated RAW264.7 cells; design: method as in PMID 28333094; conditions: cited from earlier work
[2] = Transport in the human intestinal Caco-2 cell monolayer model; assay type: in vitro ADME; conditions: human; for Papp B→A at 90 min, 50 µM / efflux ratio at 90 min, 50 µM: Caco-2; for Papp B→A at 90 min, 50 µM: basolateral to apical; for efflux ratio at 90 min, 50 µM: ratio of Papp BL→AP to Papp AP→BL
Description: (§1) For confluence and differentiation, cells were seeded at a density of 1 × 10^5 cells/cm^2 into 12-well Transwell plates (insert diameter 12 mm, pore size 3.0 μm, membrane growth area 1.12 cm^2, Costar® #3402) and were allowed to grow for 21 days before the permeation experiment. On Day 21, the monolayers with TEER values >500 Ω·cm^2 were qualified for the transport experiment. The transport study was initiated by the careful removal of the culture medium from AP and BL side of the inserts. Caco-2 monolayers were rinsed twice with pre-warmed HBSS and were incubated by pre-warmed HBSS for 30 min at 37 °C. Stock solutions of test phenolic acid esters were prepared in DMSO and diluted to 50 µM with HBSS. […] The assayed solutions (50 µM) were added to the AP side (0.5 mL, for absorption transport) or BL side (1.5 mL, for efflux transport) of the inserts, while the receiving chamber contained the corresponding volume of HBSS. Incubation was performed at 37 °C for 90 min, with shaking at 50 rpm. Samples were collected from the inserts, then frozen, lyophilized, redissolved in MeOH, and injected into HPLC system for quantitative analysis.
(§2) The Papp values were calculated as the following equation:Papp = (dQ/dt) × (1/A) × (1/C0) (cm/s)(1) where dQ/dt is the rate of the appearance of the test compound on the receiver compartment (μmol/s), C0 is the initial test compound concentration on the donor compartment (μmol/mL), and A is the surface area of Caco-2 monolayer (cm^2).

Caco-2 cell monolayer = assay: as above; assay type: in vitro ADME; conditions: for absorption assignment: assigned from Papp AP→BL against propranolol and atenolol; for amount in the receiving chambers: HPLC quantification after transport
Description: as §1, §2

[3] = system: NO production in LPS-activated RAW264.7 macrophages; assay: NO inhibitory assay in LPS-activated RAW264.7 macrophages (Griess); assay type: cell-based, murine; conditions: Mus musculus, read-out: IC50 on NO production
Description: Briefly, RAW 264.7 cells were maintained in DMEM containing 10% FBS, in a constant humidity atmosphere of 5% CO2 and 95% air at 37 °C, seeded in 96-well culture plates (Costar® #3599, Cambridge, MA, USA) at a density of 3 × 10^4 cells/well for 12 h, and then stimulated with LPS (1 μg/mL) and treated with various concentrations of assayed compounds for 24 h. After that, the cell culture supernatant (100 μL) was collected to react with Griess reagent (100 μL) for 15 min at room temperature. The nitrite in culture medium was measured as an indicator of NO production. NaNO2 was used to generate a standard curve, and NO production was determined by measuring the optical density at 540 nm in comparison with the standard curve. […] The experiments were performed in parallel three times, and L-NIL was used as a positive control. Cell viability (>95%) was assessed by using an MTT assay. The IC50 values were calculated by the software SPSS 16.0 (SPSS Inc., Chicago, IL, USA).

[4] = Stability of the phenolic acid esters in HPLC method validation (Table S1); assay type: physicochemical
Description: Quantitative analysis of nine phenolic acid esters was performed on a Dionex Ultimate™ 3000 UHPLC system (Dionex Corp., Sunnyvale, CA, USA), comprised of Ultimate 3000 pump, autosampler, column compartment, and diode array detector. The signals were acquired and processed applying a Chromeleon version 6.80 software (Dionex Corp., Sunnyvale, CA, USA). HPLC separation was performed on a C18 Luna® column (250 mm × 4.60 mm i.d., 5 μm) (Phenomenex, Torrance, CA, USA). […] The detection wavelength was set at 305 nm for 2, 270 nm for 3, 259 nm for 4, 325 nm for 1 and 5–9. Column oven was maintained at 25 °C, and the injected volume was 20 μL. The calibration curves were constructed by plotting peak area (y, mAU × min) versus concentration (x, µM). The linear equations across 1–75 µM were y = 0.0087x − 0.0041 with r^2 of 0.9994 for 1, y = 0.0066x − 0.0013 with r^2 of 0.9999 for 2, y = 0.0667x − 0.0269 with r^2 of 0.9997 for 4, y = 0.0917x + 0.0040 with r^2 of 0.9998 for 5, y = 0.0614x − 0.0038 with r^2 of 0.9999 for 6, y = 0.0623x + 0.0051 with r^2 of 0.9999 for 8, and y = 0.0639x − 0.0464 with r^2 of 0.9978 for 9. […] Quantification was carried out by peak area measurements in comparison with the calibration curves.

RAW264.7 cells = assay: MTT cytotoxicity assay in RAW264.7 cells; conditions: viability less than 95% of control considered toxic
Description: The cell viability less than 95% of control was considered toxic.
Cell viability (>95%) was assessed by using an MTT assay.

[5] = Caco-2, apical to basolateral, 50 µM, incubation up to 90 min, n = 4
[6] = Caco-2, values as stated in text
[7] = 50 µM, incubation up to 90 min, n = 4
[8] = RAW264.7, LPS 1 μg/mL, 24 h, n = 3

Compound | IC50 [1] [µM] | Papp A→B at 90 min, 50 µM [2, 5] [×10⁻⁶ cm/s] | Papp A→B at 90 min, 50 µM [2, 6] [×10⁻⁶ cm/s] | Papp B→A at 90 min, 50 µM [2, 7] [×10⁻⁶ cm/s] | efflux ratio at 90 min, 50 µM [2] | absorption assignment (Caco-2 cell monolayer) | IC50 [3, 8] [µM] | Stability ([4]; QC 5 μM) [%] | Stability ([4]; QC 25 μM) [%] | Stability ([4]; QC 50 μM) [%] | cytotoxicity (MTT) (RAW264.7 cells; 0.78125–25 μM) | amount in the receiving chambers (Caco-2 cell monolayer) | cytotoxicity (MTT) (RAW264.7 cells; 3.125–100 μM) | cytotoxicity (MTT) (RAW264.7 cells; 1.5625–50 μM) | cytotoxicity (MTT) (RAW264.7 cells; 0.25 to 8 μM) | IC50 ([3]; RAW264.7, 24 h) [µM]
COc1cc(/C=C/C(=O)OCC(O)COC(=O)/C=C/c2ccc(O)c(OC)c2)ccc1O [1,3-O-diferuloylglycerol] | 12 ± 1.07 |  |  |  |  |  |  |  |  |  |  |  |  |  |  | 
COc1cc(/C=C/C(=O)OCC(CO)OC(=O)/C=C/c2ccc(O)cc2)ccc1O (stereo not drawn) [1-O-feruloyl-2-O-p-coumaroylglycerol] | 9.12 ± 0.72 |  |  |  |  |  |  |  |  |  |  |  |  |  |  | 
CC/C(C)=C/CCOC(=O)/C=C/c1ccc(O)c(OC)c1 [Compound 1, 4-methyl-3-trans-hexenylferulate] |  | 0.5 ± 0.12 | < 1 | 0.62 ± 0.12 | 1.24 | poorly absorbed | 1.01 ± 0.08 | 93.56±1.02 | 95.65±0.56 | 92.25±1.63 | no toxicity |  |  |  |  | 
O=C(OCc1ccccc1)c1ccccc1O [Compound 2, benzylsalicylate] |  | 18 ± 1.63 | > 10 | 13.4 ± 0.63 |  | good absorption; also recorded: well-absorbed | 53.7 ± 4.13 | 98.84±2.09 | 94.57±1.85 | 97.25±2.09 |  |  |  |  |  | 
CC1(C)C2CCC1(C)C(OC(=O)C=Cc1ccccc1)C2 (stereo not drawn) [Compound 3, bornylcinnamate] |  | < 0.05 | < 0.1 | < 0.02 |  | poorly absorbed; also recorded: hardly permeate | 70.5 ± 25.9 |  |  |  |  | below the lower limit of detection | no toxicity |  |  | 
COc1ccc(C(=O)OCCc2ccc(O)cc2)cc1 [Compound 4, p-hydroxyphenethyl anisate] |  | 0.36 ± 0.04 | < 1 | 0.05 ± 0.01 | 0.15 | poorly absorbed | 11.1 ± 1.43 | 92.28±2.07 | 100.74±2.15 | 95.85±2.01 |  |  | no toxicity |  |  | 
COc1cc(/C=C/C(=O)OC2CC3CCC2(C)C3(C)C)ccc1O (stereo not drawn) [Compound 5, (−)-bornylferulate] |  | 0.08 ± 0.02 | < 0.1 | 0.13 ± 0.02 | 1.69 | poorly absorbed; also recorded: hardly permeate | 4.63 ± 1.73 | 96.29±0.99 | 94.56±0.96 | 95.85±1.01 | no toxicity |  |  |  |  | 
COc1cc(/C=C/C(=O)OC(C)C)ccc1O [Compound 6, isopropylferulate] |  | 17.6 ± 2.27 | > 10 | 13.8 ± 2.74 | 0.79 | good absorption; also recorded: well-absorbed | 12.6 ± 2.8 | 95.08±1.56 | 102.02±1.96 | 102.05±1.39 |  |  |  | no toxicity |  | 
CCCCCCCCCCCCCCCCCCCCCCCCCCCCCCOC(=O)/C=C/c1ccc(O)c(OC)c1 [Compound 7, trans-triacontyl-4-hydroxy-3-methoxycinnamate] |  | < 0.02 | < 0.1 | < 0.01 |  | poorly absorbed; also recorded: hardly permeate |  |  |  |  |  | below the lower limit of detection |  |  | had cytotoxicity | 
COc1ccc(CCOC(=O)/C=C/c2ccc(O)c(OC)c2)cc1 [Compound 8, 4-methoxyphenethylferulate] |  | 2.21 ± 0.07 | ~1 | 2.55 ± 0.44 | 1.15 | moderately absorbed | 2.47 ± 0.64 | 93.28±2.17 | 95.45±1.12 | 102.58±1.54 |  |  |  | no toxicity |  | 
COc1cc(/C=C/C(=O)OCCc2ccccc2)ccc1O [Compound 9, phenethylferulate] |  | 0.66 ± 0.16 | < 1 | 0.7 ± 0.18 | 1.06 | poorly absorbed | 2.73 ± 0.58 | 92.26±2.89 | 93.71±1.88 | 101.99±1.32 |  |  |  | no toxicity |  | 
COc1cc(/C=C/C(=O)O)ccc1O [Compound 10, ferulic acid, reference compound] |  |  |  |  |  |  | 67.9 ± 0.91 |  |  |  |  |  |  |  |  | 
O=C(O)/C=C/c1ccccc1 [Compound 11, cinnamic acid, reference compound] |  |  |  |  |  |  | > 200 |  |  |  |  |  |  |  |  | 
CC(=N)NCCCC[C@H](N)C(=O)O [L-NIL, reference compound] |  |  |  |  |  |  |  |  |  |  |  |  |  |  |  | 9.37 ± 1.57
CC(C)NCC(O)COc1cccc2ccccc12 (stereo not drawn) [propranolol, reference compound] |  |  | 22.9 |  |  |  |  |  |  |  |  |  |  |  |  | 
